# According to ChEMBL document CHEMBL1201862, “PubChem BioAssay data set” (2004):
# Values joined by “and” are separate entries in the source; they are usually repeats but may differ in a detail not shown here. Equal values may be shown once.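 Following 48 hours of exposure in 96-well plates, responses at five concentrations were used to interpolate endpoints linearly. Here, GI50 denotes the concentration required for 50% inhibition of growth.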 Active and inactive are the calls of the source. Rule as the data show it: active = GI50 up to about 1.1 µM and inactive = higher.
# Experiments:
# Experiment in all cases: NCI-60 cell line screen, 48 h
# A549 = tested on: A549
# COLO 205 = tested on: COLO 205
# UACC-257 = tested on: UACC-257
# HT-29 = tested on: HT-29
# 786-0 = tested on: 786-0
# SR = tested on: SR
# RPMI-8226 = tested on: RPMI-8226
# SK-OV-3 = tested on: SK-OV-3
# HOP-62 = tested on: HOP-62
# M14 = tested on: M14
# IGROV-1 = tested on: IGROV-1
# MCF7 = tested on: MCF7
# HL-60 = tested on: HL-60
# SN12C = tested on: SN12C
# SF-295 = tested on: SF-295
# DU-145 = tested on: DU-145
# SF-268 = tested on: SF-268
# HCC 2998 = tested on: HCC 2998
# TK-10 = tested on: TK-10
# EKVX = tested on: EKVX
# SW-620 = tested on: SW-620
# T47D = tested on: T47D
# RXF 393 = tested on: RXF 393
# SNB-75 = tested on: SNB-75
# K562 = tested on: K562
# CAKI-1 = tested on: CAKI-1
# SK-MEL-5 = tested on: SK-MEL-5
# MDA-MB-231 = tested on: MDA-MB-231
# MOLT-4 = tested on: MOLT-4
# OVCAR-8 = tested on: OVCAR-8
# PC-3 = tested on: PC-3
# HCT-15 = tested on: HCT-15
# NCI-H23 = tested on: NCI-H23
# KM12 = tested on: KM12
# SK-MEL-28 = tested on: SK-MEL-28
# MDA-N = tested on: MDA-N
# UACC-62 = tested on: UACC-62
# Malme-3M = tested on: Malme-3M
# HCT-116 = tested on: HCT-116
# U-251 = tested on: U-251
# SK-MEL-2 = tested on: SK-MEL-2
# CCRF-CEM = tested on: CCRF-CEM
# A498 = tested on: A498
# HOP-92 = tested on: HOP-92
# UO-31 = tested on: UO-31
# NCI-H522 = tested on: NCI-H522
# NCI-H226 = tested on: NCI-H226
# SNB-19 = tested on: SNB-19
# ACHN = tested on: ACHN
# OVCAR-3 = tested on: OVCAR-3
# SF-539 = tested on: SF-539
# LOX IMVI = tested on: LOX IMVI
# OVCAR-5 = tested on: OVCAR-5
# NCI-H460 = tested on: NCI-H460
# NCI/ADR-RES = tested on: NCI/ADR-RES
# OVCAR-4 = tested on: OVCAR-4
# MDA-MB-435 = tested on: MDA-MB-435
compound,measurement,setting,value
Clc1ccc(/C=N/Nc2nnc3c4ccccc4c4ncccc4c3n2)cc1,GI50,A549,> 10 µM (inactive)
same,GI50,COLO 205,> 10 µM (inactive)
same,GI50,UACC-257,> 10 µM (inactive)
same,GI50,HT-29,> 10 µM (inactive)
same,GI50,786-0,> 10 µM (inactive)
same,GI50,SR,> 10 µM (inactive)
same,GI50,RPMI-8226,> 10 µM (inactive)
same,GI50,SK-OV-3,> 10 µM (inactive)
same,GI50,HOP-62,> 10 µM (inactive)
same,GI50,M14,> 10 µM (inactive)
same,GI50,IGROV-1,> 10 µM (inactive)
same,GI50,MCF7,> 10 µM (inactive)
same,GI50,HL-60,> 10 µM (inactive)
same,GI50,SN12C,> 10 µM (inactive)
same,GI50,SF-295,> 10 µM (inactive)
same,GI50,DU-145,> 10 µM (inactive)
same,GI50,SF-268,> 10 µM (inactive)
same,GI50,HCC 2998,> 10 µM (inactive)
same,GI50,TK-10,> 10 µM (inactive)
same,GI50,EKVX,> 10 µM (inactive)
same,GI50,SW-620,> 10 µM (inactive)
same,GI50,T47D,> 10 µM (inactive)
same,GI50,RXF 393,> 10 µM (inactive)
same,GI50,SNB-75,> 10 µM (inactive)
same,GI50,K562,> 10 µM (inactive)
same,GI50,CAKI-1,> 10 µM (inactive)
same,GI50,SK-MEL-5,> 10 µM (inactive)
same,GI50,MDA-MB-231,> 10 µM (inactive)
same,GI50,MOLT-4,> 10 µM (inactive)
same,GI50,OVCAR-8,> 10 µM (inactive)
same,GI50,PC-3,> 10 µM (inactive)
same,GI50,HCT-15,> 10 µM
same,GI50,NCI-H23,> 10 µM (inactive)
same,GI50,KM12,> 10 µM (inactive)
same,GI50,SK-MEL-28,> 10 µM (inactive)
same,GI50,MDA-N,> 10 µM (inactive)
same,GI50,UACC-62,> 10 µM (inactive)
same,GI50,Malme-3M,> 10 µM (inactive)
C(=N\Cc1ccccc1)/c1ccccc1-c1ccccc1/C=N/Cc1ccccc1,GI50,A549,> 10 µM (inactive)
same,GI50,COLO 205,> 10 µM (inactive)
same,GI50,UACC-257,2.7 µM (inactive)
same,GI50,HT-29,> 10 µM (inactive)
same,GI50,786-0,> 10 µM (inactive)
same,GI50,HCT-116,2.86 µM (inactive)
same,GI50,U-251,6.5 µM (inactive)
same,GI50,SR,3.26 µM (inactive)
same,GI50,SK-MEL-2,> 10 µM (inactive)
same,GI50,CCRF-CEM,2.65 µM (inactive)
same,GI50,A498,> 10 µM (inactive)
same,GI50,RPMI-8226,3.01 µM (inactive)
same,GI50,SK-OV-3,> 10 µM (inactive)
same,GI50,HOP-62,> 10 µM (inactive)
same,GI50,M14,9.86 µM (inactive)
same,GI50,HOP-92,> 10 µM (inactive)
same,GI50,IGROV-1,> 7.46 µM (inactive)
same,GI50,MCF7,3.82 µM (inactive)
same,GI50,HL-60,2.36 µM (inactive)
same,GI50,SN12C,> 10 µM (inactive)
same,GI50,SF-295,> 10 µM (inactive)
same,GI50,DU-145,> 10 µM (inactive)
same,GI50,SF-268,> 10 µM (inactive)
same,GI50,UO-31,> 10 µM (inactive)
same,GI50,TK-10,> 10 µM (inactive)
same,GI50,NCI-H522,> 10 µM (inactive)
same,GI50,NCI-H226,> 10 µM (inactive)
same,GI50,EKVX,> 10 µM (inactive)
same,GI50,SNB-19,> 10 µM (inactive)
same,GI50,SW-620,> 10 µM (inactive)
same,GI50,T47D,4.99 µM (inactive)
same,GI50,ACHN,> 8.53 µM (inactive)
same,GI50,RXF 393,> 10 µM (inactive)
same,GI50,SNB-75,4.59 µM (inactive)
same,GI50,OVCAR-3,4.6 µM (inactive)
same,GI50,SF-539,> 10 µM (inactive)
same,GI50,LOX IMVI,5.42 µM (inactive)
same,GI50,K562,3.13 µM (inactive)
same,GI50,CAKI-1,> 10 µM (inactive)
same,GI50,SK-MEL-5,> 7.03 µM (inactive)
same,GI50,MDA-MB-231,> 10 µM (inactive)
same,GI50,MOLT-4,3.52 µM (inactive)
same,GI50,OVCAR-5,> 10 µM (inactive)
same,GI50,NCI-H460,> 8.34 µM (inactive)
same,GI50,NCI/ADR-RES,> 10 µM (inactive)
same,GI50,OVCAR-4,> 7.96 µM (inactive)
same,GI50,OVCAR-8,> 10 µM (inactive)
same,GI50,PC-3,> 10 µM (inactive)
same,GI50,HCT-15,5.47 µM
same,GI50,NCI-H23,> 8.67 µM (inactive)
same,GI50,KM12,> 10 µM (inactive)
same,GI50,SK-MEL-28,> 7.57 µM (inactive)
same,GI50,MDA-N,5.33 µM (inactive)
same,GI50,UACC-62,> 7.23 µM (inactive)
same,GI50,Malme-3M,> 9.62 µM (inactive)
same,GI50,MDA-MB-435,> 10 µM (inactive)
CCCCCCCCCCCCCCCCP(=O)(O)OP(=O)(O)OCC1OC(n2ccc(N)nc2=O)C(O)C1O (configuration not stated),GI50,SR,0.323 µM (active)
same,GI50,SK-MEL-2,> 100 µM (inactive) and 76.7 µM (inactive)
same,GI50,A498,8.91 µM (inactive)
same,GI50,DU-145,25.8 µM (inactive)
same,GI50,TK-10,29.4 µM (inactive) and 41 µM (inactive)
same,GI50,EKVX,> 100 µM (inactive)
same,GI50,T47D,> 90.2 µM (inactive)
same,GI50,SNB-75,16.9 µM (inactive) and 32.9 µM (inactive)
same,GI50,OVCAR-3,60 µM (inactive)
same,GI50,SF-539,14.3 µM (inactive) and 22.9 µM (inactive)
same,GI50,OVCAR-5,18.5 µM (inactive) and 21.7 µM (inactive)
same,GI50,KM12,31.8 µM (inactive) and 38.4 µM (inactive)
same,GI50,SK-MEL-28,32.4 µM (inactive) and 47.5 µM (inactive)
